According to ChEMBL document CHEMBL1146299, “Molecular modeling of binding between amidinobenzisothiazoles, with antidegenerative activity on cartilage, and matrix metalloproteinase-3” (Bioorg Med Chem, 2007):

test: Dissociation constant, pKa of the compound; type: physicochemical

pKa	Structure (SMILES)
6.99	CC(=N)Nc1nsc2ccccc12
4.84	N=C(Nc1nsc2ccccc12)c1ccc(Cl)cc1
5.4	N=C(Nc1nsc2ccccc12)c1ccccc1
